Ends that are not written are not given here.
Legend:
[1] = test system: peptide-pulsed T2; assay: IFN-gamma ELISA assay of CTL lines (HLA-A*0201); format: cell-based, human; conditions: target cells pulsed with corresponding peptide vs without peptide pulse
Method: CTLs were expanded in culture using the method similar to the one described by Riddell et al. (Walter E A et al., N Engl J Med 1995 Oct. 19, 333(16): 1038-44; Riddell S R et al., Nat Med 1996 February, 2(2): 216-23). A total of 5×10^4 CTLs were suspended in 25 ml of AIM-V/5% AS medium with 2 kinds of human B-lymphoblastoid cell lines, inactivated by Mitomycin C, in the presence of 40 ng/ml of anti-CD3 monoclonal antibody (Pharmingen). One day after initiating the cultures, 120 IU/ml of IL-2 were added to the cultures. The cultures were fed with fresh AIM-V/5% AS medium containing 30 IU/ml of IL-2 on days 5, 8 and 11 (Tanaka H et al., Br J Cancer 2001 Jan. 5, 84(1): 94-9; Umano Y et al., Br J Cancer 2001 Apr. 20, 84(8): 1052-7; Uchida N et al., Clin Cancer Res 2004 Dec. 15, 10(24): 8577-86; Suda T et al., Cancer Sci 2006 May, 97(5): 411-9; Watanabe T et al., Cancer Sci 2005 August, 96(8): 498-506).
(§1) To examine specific CTL activity, interferon (IFN)-gamma enzyme-linked immunospot (ELISPOT) assay and IFN-gamma enzyme-linked immunosorbent assay (ELISA) were performed. Specifically, peptide-pulsed T2 (1×10^4/well) was prepared as stimulator cells. Cultured cells in 48 wells were used as responder cells. IFN-gamma ELISPOT assay and IFN-gamma ELISA assay were performed under manufacture procedure.

[2] = test system: peptide-pulsed T2; assay: IFN-gamma ELISPOT assay on CTLs induced with peptide (HLA-A*0201); format: cell-based, human; conditions: CTLs from HLA-A*0201 positive donor, 3 rounds of stimulation, day 21; vs control wells without peptide
Source text: Monocyte-derived dendritic cells (DCs) were used as antigen-presenting cells to induce cytotoxic T lymphocyte (CTL) responses against peptides presented on human leukocyte antigen (HLA). DCs were generated in vitro as described elsewhere (Nakahara S et al., Cancer Res 2003 Jul. 15, 63(14): 4112-8). Specifically, peripheral blood mononuclear cells (PBMCs) isolated from a normal volunteer (HLA-A*0201 positive) by Ficoll-Plaque (Pharmacia) solution were separated by adherence to a plastic tissue culture dish (Becton Dickinson) so as to enrich them as the monocyte fraction. The monocyte-enriched population was cultured in the presence of 1,000 U/ml of granulocyte-macrophage colony-stimulating factor (R&D System) and 1,000 U/ml of interleukin (IL)-4 (R&D System) in AIM-V Medium (Invitrogen) containing 2% heat-inactivated autologous serum (AS). After 7 days of culture, the cytokine-induced DCs were pulsed with 20 micro-g/ml of each of the synthesized peptides in the presence of 3 micro-g/ml of beta 2-microglobulin for 3 hrs at 37 degrees C. in AIM-V Medium. The generated cells appeared to express DC-associated molecules, such as CD80, CD83, CD86 and HLA class II, on their cell surfaces (data not shown). These peptide-pulsed DCs were then inactivated by X-irradiated (20 Gy) and mixed at a 1:20 ratio with autologous CD8+ T cells, obtained by positive selection with CD8 positive Isolation Kit (Dynal). These cultures were set up in 48-well plates (Corning); each well contained 1.5×10^4 peptide-pulsed DCs, 3×10^5 CD8+ T cells and 10 ng/ml of IL-7 (R&D System) in 0.5 ml of AIM-V/2% AS medium. Three days later, these cultures were supplemented with IL-2 (CHIRON) to a final concentration of 20 IU/ml. On days 7 and 14, the T cells were further stimulated with the autologous peptide-pulsed DCs. The DCs were prepared each time by the same way described above. CTL was tested against peptide-pulsed T2 cells after the 3rd round of peptide stimulation on day 21 (Tanaka H et al., Br J Cancer 2001 Jan. 5, 84(1): 94-9; Umano Y et al., Br J Cancer 2001 Apr. 20, 84(8): 1052-7; Uchida N et al., Clin Cancer Res 2004 Dec. 15, 10(24): 8577-86; Suda T et al., Cancer Sci 2006 May, 97(5): 411-9; Watanabe T et al., Cancer Sci 2005 August, 96(8): 498-506).
as §1

[3] = test system: COS7 cells transfected with C6orf167 and HLA-A*0201; assay: Specific CTL activity against target cells exogenously expressing C6orf167 and HLA-A*0201; format: cell-based, African green monkey; conditions: for Specific CTL activity against control COS7 cells: COS7 transfected with either full length C6orf167 or HLA-A*0201 alone; for Specific CTL activity against COS7 cells expressing both C6orf167 and HLA-A*0201: CTL line (SEQ ID NO: 79) or CTL clone (SEQ ID NO: 114) as effector cells
Source text: The cDNA encoding an open reading frame of target genes or HLA-A*0201 was amplified by PCR. The PCR-amplified product was cloned into pCAGGS vector and pIRES vector (Clontech Laboratories, Inc., Cat. No. 631605). The plasmids were transfected into COS7, which is the target genes and HLA-A*0201-null cell line, using lipofectamine 2000 (Invitrogen) according to the manufacturer's recommended procedures. After 2 days from transfection, the transfected cells were harvested with versene (Invitrogen) and used as the target cells (5×10^4 cells/well) for CTL activity assay.
The established CTL lines and clones raised against each peptide were examined for the ability to recognize target cells that endogenously express C6orf167 and HLA-A*0201 molecule. Specific CTL activity against COS7 cells which transfected with both the full length of C6orf167 and HLA-A*0201 gene (a specific model for the target cells that exogenously express C6orf167 and HLA-A*0201 gene) was tested by using the CTL lines and clones raised by corresponding peptide as the effector cells. COS7 cells transfected with either full length of C6orf167 or HLA-A*0201 were prepared as the controls.

[4] = test system: peptide-pulsed T2; assay: IFN-gamma ELISA assay of CTL clones (HLA-A*0201); format: cell-based, human; conditions: clones by limiting dilution; target cells pulsed with peptide
Method: The dilutions were made to have 0.3, 1, and 3 CTLs/well in 96 round-bottomed micro titer plate (Nalge Nunc International). CTLs were cultured with 1×10^4 cells/well of 2 kinds of human B-lymphoblastoid cell lines, 30 ng/ml of anti-CD3 antibody, and 125 U/ml of IL-2 in a total of 150 micro-l/well of AIM-V Medium containing 5% AS. 50 micro-1/well of IL-2 were added to the medium 10 days later so to reach a final concentration of 125 U/ml IL-2. CTL activity was tested on the 14th day, and CTL clones were expanded using the same method as described above (Uchida N et al., Clin Cancer Res 2004 Dec. 15, 10(24): 8577-86; Suda T et al., Cancer Sci 2006 May, 97(5): 411-9; Watanabe T et al., Cancer Sci 2005 August, 96(8): 498-506).
as §1

Substance	IFN-gamma production of CTL lines by ELISA [1]	Peptide specific CTL activity: IFN-gamma production by ELISPOT [2]	Specific CTL activity against control COS7 cells [3]	Specific CTL activity against COS7 cells expressing both C6orf167 and HLA-A*0201 [3]	IFN-gamma production of CTL clones by ELISA [4]
TLLCDLISL [SEQ ID NO: 79]	potent IFN-gamma production	potent IFN-gamma production	no significant specific CTL activity	potent CTL activity	Potent IFN-gamma productions
TLLSiYIDGV (TLLSIYIDGV; not fully specified; printed as TLLSiYIDGV) [SEQ ID NO: 114]	potent IFN-gamma production	potent IFN-gamma production	no significant specific CTL activity	potent CTL activity	Potent IFN-gamma productions
